Entries after “also recorded” stand apart in the source; their conditions may differ. Where no end group is shown, it is not given here.
Legend:
bacterial infections = conditions: mouse, in vivo; cited from earlier work
[1] = mouse model; cited from earlier work
monocytic cells = conditions: cited from earlier work
[2] = system: human peripheral blood mononuclear cells (PBMC); assay: Chemokine induction in human PBMC (capture ELISA); type: cell-based; conditions: for ability to stimulate human PBMC to induce the expression of the chemokines MCP-1, Gro-α and IL8: ELISA 24 hours after peptide addition, compared to LL-37, lowest peptide concentration 5 μg/ml
Method: (§1) Venous blood (20 ml) from healthy volunteers was collected in Vacutainer® collection tubes containing sodium heparin as an anticoagulant (Becton Dickinson, Mississauga, ON) in accordance with UBC ethical approval and guidelines. Blood was diluted 1:1 with complete RPMI 1640 medium and separated by centrifugation over a Ficoll-Paque® Plus (Amersham Biosciences, Piscataway, N.J., USA) density gradient. White blood cells were isolated from the buffy coat, washed twice in RPMI 1640 complete medium, and the number of peripheral blood mononuclear cells (PBMC) was determined by trypan blue exclusion. PBMC (5×10^5) were seeded into 12-well tissue culture dishes (Falcon; Becton Dickinson) at 0.75 to 1×10^6 cells/ml at 37° C. in 5% CO2. The above conditions were chosen to mimic conditions for circulating blood monocytes entering tissues at the site of infection via extravasation.
(§2) Following incubation of the cells under various treatment regimens, the tissue culture supernatants were centrifuged at 1000×g for 5 min, then at 10,000×g for 2 min to obtain cell-free samples. Supernatants were aliquoted and then stored at −20° C. prior to assay for various chemokines by capture ELISA (eBioscience and BioSource International Inc., CA, USA respectively).

human PBMC = assay: Chemokine responses of human PBMC to CpG oligonucleotides with co-administered lantibiotic peptides; type: cell-based; conditions: for synergy with known adjuvants like CpG: FIG. 3, FIG. 8
Method: FIG. 3A-C. Reinforcement of chemokine responses in human PBMC to the bacterial signature molecules, Cpg oligonucleotides, by co-administration of lantibiotic peptides. On the X-axis of this and subsequent Figures, N=Nisin Z, P=Pep5, G=gallidermin.
as §1, §2

macrophages = conditions: previously shown in applicant's laboratory; cited from earlier work
S. aureus = assay: Protection of mice vs. Staphylococcus aureus challenge (peritoneal); type: in vivo
Method: FIG. 9. Protection of animals vs. Staphylococcus aureus challenge when administered 4 hours prior to initiating the infection. A represents the reduction in colony counts within the peritoneum of mice treated with lantibiotic peptide (or negative control 1005 or positive control 1002) and challenged with ˜10^8 S. aureus in hog gastric mucin. […] An additional peptide 1002 was included as a positive control.
Conventional peptides are known to protect against infection (Scott et al. Nature Biotech 2007). However such peptides are very expensive whereas lantibiotics are bacterial fermentation products and thus inexpensive. Thus we assessed the reduction in colony counts after 24 hours within the peritoneum of mice treated with the lantibiotic peptide nisin (or negative control 1005 or positive control 1002) and challenged these mice 4 hours later with ˜10^8 S. aureus in hog gastric mucin. […] Thus the in vitro activities of nisin in increasing MCP-1 production in PBMC is clearly related to in vivo protection in animal models.

Citrobacter rodentium = Citrobacter rodentium challenge in mice (live imaging, intestinal histology); type: in vivo
Method: FIG. 10. Live-time Non-invasive imaging following Citrobacter rodentium challenge; effect of nisin treatment. Animals were pre-treated intraperitoneally with 200 μg nisin, 4 h prior to initiating the infection. Mice were then infected via gavage with 2.5×10^8 CFU of Citrobacter rodentium (lux—luminescence labeled). Live mice were followed with a CCD camera over time to assess bacterial clearance/resolution of infection.
FIG. 11. Histology of the intestines of Citrobacter treated animals after sacrifice at day 11; effect of nisin treatment. A. Sections of (from right to left): normal uninfected, saline treated infected, and nisin-treated intestines. Letter labels are a. Inflammatory infiltrate and edema; b. elongated crypts (hyperplasia); c. sloughing of damaged epithelial cells (mucosal integrity); d. depletion of mucous in goblet cells. B. Scoring of these micrographs.

[3] = intestines, sacrifice at day 11, p<0.05, FIG. 11

LL-37: natural human host defence peptide (LLGDFFRKSKEKIGKEFKRIVQRIKDFLRNLVPRTES; Antibacterial peptide LL-37; UniProt P49913 134-170, looked up)
protection against bacterial infections (bacterial infections): able to protect against bacterial infections
endotoxin mediated TNFα induction and lethality [1]: reduce endotoxin mediated TNFα induction and lethality
anti-endotoxic activity in vitro (suppression of LPS-mediated induction of TNFα) (monocytic cells): excellent anti-endotoxic activity

Nisin A: lantibiotic, a variant of Nisin Z (ITSISLCTPGCKTGALMGCNMKTATCHCSIHVSK; thioether (positions not given here); also: lantibiotic; UniProt P13068 24-57, looked up)
ability to induce MCP-1 ([2]; 24 hours, 100 μg of peptide, ELISA, FIG. 7): excellent activity

Nisin Z: cationic lantibiotic bacteriocin purified from L. lactis NIZO 22186 fermentation broth (ITSISLCTPGCKTGALMGCNMKTATCNCSIHVSK; thioether (positions not given here); also: lantibiotic; UniProt P29559 24-57, looked up)
synergy with known adjuvants like CpG (human PBMC): show synergy
MCP-3 release above the additive effect of CpG alone and lantibiotic alone (human PBMC; p<0.05): statistically significantly (p<0.05) increased
inducing MCP-1 and IL6, compared with CpG (human PBMC; vs three classes of CpG): superior to any of the three classes of CpG
ability to stimulate human PBMC to induce the expression of the chemokines MCP-1, Gro-α and IL8 ([2]; FIG. 2A-C): most effective; also recorded: ability to induce chemokines
dose response of chemokine induction ([2]; between 30 and 150 μg/ml, FIG. 2A-C): good dose response

Pep5: cationic lantibiotic purified from producer strain S. epidermidis 25 (TAGPAIRASVKQCQKTLKATRLFTVSCKGKNGCK; thioether (positions not given here); also: lantibiotic; UniProt P19578 27-60, looked up)
synergy with known adjuvants like CpG (human PBMC): show synergy
ability to stimulate human PBMC to induce the expression of the chemokines MCP-1, Gro-α and IL8 ([2]; FIG. 2A-C): ability to induce chemokines

gallidermin: cationic lantibiotic purified from Staphylococcus gallinarum Tü 3928 (IASKFLCTPGCAKTGSFNSYCC; thioether (positions not given here); also: lantibiotic; UniProt P21838 31-52, looked up)
synergy with known adjuvants like CpG (human PBMC): show synergy
ability to stimulate human PBMC to induce the expression of the chemokines MCP-1, Gro-α and IL8 ([2]; FIG. 2A-C): quite effective; also recorded: ability to induce chemokines

indolicidin: 13-mer peptide (ILPWKWPWWPWRR; ends and bridges not checked; UniProt P33046 131-143, looked up)
anti-endotoxic activity (suppression of LPS-stimulated TNFα by macrophages) (macrophages): rather modest anti-endotoxic activity

nisin
colony counts within the peritoneum (S. aureus; after 24 hours, peptide 4 hours before ~10^8 S. aureus in hog gastric mucin, FIG. 9A): reducing average colony counts
visual observation scores (physiological consequences) (S. aureus; cf. control peptides 1002 and 1005, FIG. 9B): vastly improved
infection in the gut / bacterial clearance (Citrobacter rodentium; 200 μg nisin intraperitoneally 4 h before gavage with 2.5×10^8 CFU, CCD imaging, FIG. 10): substantial decrease in infection in the gut; also recorded: superior clearance
duration of the decrease in infection / superior clearance (Citrobacter rodentium; after injection of nisin, FIG. 10): up to 11 days
damage to epithelial integrity (histology score) (Citrobacter rodentium; [3]): decrease
goblet cell depletion (histology score) (Citrobacter rodentium; [3]): decrease
inflammatory exudate and edema (histology score) (Citrobacter rodentium; [3]): significant (p<0.05) increase
synergy in inducing MCP-1 over and above the individual components (human PBMC; adjuvant formulations, ratios 2:1, 1:1 and 1:2 nisin to CpG, FIG. 8): demonstrated synergy

Reference: patent US20110150917A1, “Small Cationic Antimicrobial Peptides” (THE UNIVERSITY OF BRITISH COLUMBIA, priority 2007, published 2011)
